Reference: patent publication US7622551B2, “Leukocyte stimulating peptides” (POSCO, priority 2004, dated 2009)
Where no end group is shown, it is not given here.

Columns and labels:
[1] = test system: differentiated HL60 cells; assay: Arachidonic acid (AA) release in [3H]AA-labeled dHL60 cells; format: cell-based, human; details: for AA release stimulating activity (in words) / Inhibition of AA release induced by P14, P18, P21, P24: dHL60 cells; for AA release stimulating activity (in words): 10 μM; for Folds of increase (% of total), arachidonic acid release: differentiated HL60 cells, 10 μM of peptide; for Inhibition of AA release induced by P14, P18, P21, P24: 1 μM peptide, MAFP, AACOCF3, BEL at 10 μM
Description: (§1) U937 (human histiocytic lymphoma cells), HL60 (human promyelocytic leukemia cells), Raw 264.7 (mouse macrophage), Jurkat (human acute T cell leukemia), PC12 (rat adrenal pheochromocytoma cells), 3Y1 (Rat embryonic fibroblasts), 3T3L1 (preadipocytes), and NCI-H292 (human mucoepidermoid pulmonary carcinoma cells) were obtained from the American Type Culture Collection (Rockville, Md.) and maintained as recommended. FPR- or FPRL1 expressing RBL-2H3 cells were cultured as described previously (He et al. J. Immunol. 2000. 165: 4598-4605). Cells were maintained at about 1×10^6 cells/ml under standard incubator conditions (humidified atmosphere, 95% air, 5% CO2, at 37° C.). HL60 cells were induced to differentiate into the granulocyte phenotype by adding dimethylsulfoxide (DMSO) (final concentration 1.25%, v/v) for 4 days to the culture medium, as described previously (Itoh et al. Blood. 1998. 92: 1432-1441).
For the initial screening of the PS-SPCLs, we measured the AA release stimulating activity of each peptide pool. Cultured dHL60 cells (10^7 cells/ml) were pre-labeled with 0.5 μCi/ml of (^3H)-AA in RPMI 1640 medium containing 10% FBS for 90 min at 37° C. in a humidified incubator supplied with 95% air and 5% CO2, as described previously (Bae et al. J. Immunol. 2000. 164: 4089-4096). The labeled cells were then washed twice with serum-free RPMI 1640 and incubated in RPMI 1640 medium containing 0.1% fatty acid-free BSA for 15 min at 37° C. After discarding the medium, the cells were stimulated with various concentrations of peptide for the indicated times. Radioactivity in the medium and of collected cells was determined with a liquid scintillation counter. When investigating the effects of inhibitors, cells were preincubated with the indicated concentrations of each inhibitor or vehicle for 15 min prior to stimulation.

[2] = test system: differentiated HL60 cells; assay: [Ca2+]i increase in fura-2 loaded dHL60 cells; format: cell-based, human; details: for Concentration of maximal activity, [Ca^2+]i increase: data not shown; for [Ca^2+]i: differentiated HL60 cells, fura-2, 1 μM of peptide
Description: as §1
(§2) The level of [Ca^2+]i was determined using Grynkiewicz's method using fura-2/AM (Grynkiewicz et al. J. Biol. Chem. 1985. 260: 3440-3550). Briefly, prepared cells were incubated with 3 μM of fura-2/AM at 37° C. for 50 min in serum-free RPMI 1640 medium under continuous stirring. 2×10^6 cells were aliquoted for each assay in Ca^2+ free Locke's solution (154 mM NaCl, 5.6 mM KCl, 1.2 mM MgCl2, 5 mM HEPES, pH 7.3, 10 mM glucose, and 0.2 mM EGTA). Fluorescence changes were measured at the dual excitation wavelength of 340 nm and 380 nm, and the calculated fluorescence ratio was translated into [Ca^2+]i.

human monocytes = assay: Chemotaxis assay (modified Boyden chamber), monocytes; format: cell-based; details: FIG. 6B; control peptide at concentrations less than 10 μM
Description: FIGS. 6A and 6B show chemotactic effect of peptides. Assays were performed using a modified Boyden chamber assay, as described in the Examples. Isolated human neutrophils (A) or monocytes (B) (1×10^6 cells/ml in serum free RPMI) were added to the upper wells of a 96-well chemotaxis chamber and migration across a 3 μm pore size (5 μm for monocytes) polycarbonate membrane was assessed after 2 hrs incubation at 37° C. The numbers of migrated cells were determined by counting them in a high power field (400×). Results are presented as means±S.E. of three independent experiments each performed in duplicate.
Chemotaxis assays were performed using multiwell chambers (Neuroprobe Inc., Gaithersburg, Md.) (Bae et al. Blood. 2001. 97: 2854-2862). Briefly, prepared human monocytes were suspended in RPMI at a concentration of 1×10^6 cells/ml, and 25 μl of the suspension was then placed onto the upper well of a chamber separated by a 5 μm polyhydrocarbon filter (3 μm pores size not polyvinylpyrrolidone coated, as is needed for neutrophils) from peptides or N-formyl-methionyl-leucyl-phenylalanine (fMLF) in the lower well. After incubation for 2 hours (90 minutes for neutrophils) at 37° C., non-migrated cells were removed by scraping, and cells that migrated across the filter were dehydrated, fixed, and stained with hematoxylin (Sigma, St. Louis, Mo.). Stained cells were counted in five randomly chosen high power fields (HPF) (400×) (Bae et al. Blood. 2001. 97: 2854-2862).

human neutrophils = assay: Superoxide generation (cytochrome c reduction) in human neutrophils; format: cell-based
Description: Peripheral blood leukocyte concentrates were donated by the Ulsan Red Cross Blood Center (Ulsan, Korea). PBMCs were separated on a Histopaque-1077 gradient. After two washings with HBSS without Ca^2+ and Mg^2+, the PBMCs were suspended in 10% FBS containing RPMI and incubated for 60 min at 37° C. to let the monocytes attach to the culture dish. Cells were washed 5 times with warmed RPMI medium to remove lymphocytes, and then the attached monocytes were collected, as described previously (Bae et al. J. Leukoc. Biol. 1999. 65: 241-248). Human neutrophils were isolated according to standard procedures; i.e., dextran sedimentation, hypotonic lysis of erythrocytes, and using a medium lymphocyte separation gradient, as described previously (Seo et al. J. Immunol. 1997. 158: 1895-1901). Isolated human leukocytes were then used promptly.
We determined superoxide anion generation by measuring cytochrome c reduction using a microtiter 96 well plate ELISA reader (Bio-Tekinstruments, EL312e, Winooski, Vt.) as described previously (Bae et al. Blood. 2001. 97: 2854-2862). Human neutrophils (1×10^6 cells/100 μl of RPMI 1640 medium per well of a 96-well plate) were preincubated with 50 μM of cytochrome c at 37° C. for 1 min and then incubated with the indicated peptide concentrations. Superoxide generation was determined from change in light absorption at 550 nm over 5 minutes at 1 min intervals.

[3] = test system: undifferentiated HL60 cells; assay: [Ca2+]i increase in undifferentiated HL60 cells; format: cell-based, human; details: peptides 10 μM (FIG. 8)
Description: as §1, §2

| Compound | AA release stimulating activity (in words) [1] | Folds of increase (% of total), arachidonic acid release [1] | [Ca^2+]i [2] | also measured |
| --- | --- | --- | --- | --- |
| MKYYVM-NH2 [Peptide P23] | most potent | 3.05 ± 0.401 folds | 153 ± 13.2 nM | Concentration of maximal activity, [Ca^2+]i increase ([2]; dHL60 cells): approximately 3 μM |
| RKYYVM-NH2 [Peptide P17] | most potent | 2.82 ± 0.210 folds | 143 ± 10.2 nM | Cellular chemotaxis in human monocytes (in words) (human monocytes): induced cellular chemotaxis; Concentration of maximal activity, [Ca^2+]i increase ([2]; dHL60 cells): approximately 3 μM; Superoxide generation (in words) (human neutrophils): stimulate superoxide generation in a concentration-dependent manner |
| KKYHVM-NH2 [Peptide P8] |  | 1.30 ± 0.170 folds | 31 ± 3.5 nM |  |
| KKYHKM-NH2 [Peptide P7] |  | 1.42 ± 0.226 folds | 0 nM | [Ca^2+]i increase (in words) ([2]; dHL60 cells, 1 μM): did not affect |
| CCCCC[C@H](O)/C=C/C=C\C=C\C=C\[C@@H](O)[C@@H](O)CCCC(=O)O [lipoxin A4, reference compound] |  |  |  | [Ca^2+]i increase in undifferentiated HL60 cells [3]: did not affect |
| KKYYPM-NH2 [Peptide P10] | most potent | 2.27 ± 0.199 folds | 152 ± 28.7 nM | Concentration of maximal activity, [Ca^2+]i increase ([2]; dHL60 cells): approximately 3 μM |
| RKYHKM-NH2 [Peptide P13] |  | 1.47 ± 0.220 folds | 10 ± 4.2 nM |  |
| RKYYKM-NH2 [Peptide P15] |  | 1.71 ± 0.214 folds | 77 ± 12.1 nM |  |
| KKYYKM-NH2 [Peptide P9] |  | 1.49 ± 0.268 folds | 85 ± 15.8 nM |  |
| KKHYYM-NH2 [Peptide P6] |  | 1.52 ± 0.296 folds | 50 ± 11.7 nM |  |
| MKYHKM-NH2 [Peptide P19] |  | 1.68 ± 0.221 folds | 13 ± 3.0 nM |  |
| CCCCC/C=C\C/C=C\C/C=C\C/C=C\CCCC(=O)C(F)(F)F [AACOCF3, reference compound] |  |  |  | Inhibition of AA release induced by P14, P18, P21, P24 [1]: almost completely prevented |
| KKYYVM-NH2 [Peptide P11] | most potent | 2.49 ± 0.023 folds | 158 ± 25.3 nM | Concentration of maximal activity, [Ca^2+]i increase ([2]; dHL60 cells): approximately 3 μM |
| MKYHVM-NH2 [Peptide P20] | most potent | 2.55 ± 0.271 folds | 155 ± 16.3 nM |  |
| KKHHVM-NH2 [Peptide P2] |  | 1.23 ± 0.153 folds | 0 nM |  |
| KKHYVM-NH2 [Peptide P5] |  | 1.68 ± 0.390 folds | 34 ± 9.5 nM |  |
| CC(=O)OCOC(=O)CN(CC(=O)OCOC(C)=O)c1ccccc1OCCOc1ccccc1N(CC(=O)OCOC(C)=O)CC(=O)OCOC(C)=O [BAPTA/AM, reference compound] |  |  |  | Inhibition of AA release induced by P14, P18, P21, P24 [1]: inhibited |
| KKHYPM-NH2 [Peptide P4] |  | 1.41 ± 0.247 folds | 14 ± 4.1 nM |  |
| KKYYYM-NH2 [Peptide P12] | most potent | 2.58 ± 0.168 folds | 153 ± 13.2 nM | Concentration of maximal activity, [Ca^2+]i increase ([2]; dHL60 cells): approximately 3 μM |
| O=C1O/C(=C/Br)CCC1c1cccc2ccccc12 (stereo not shown) [BEL, reference compound] |  |  |  | Inhibition of AA release induced by P14, P18, P21, P24 [1]: did not interfere |
| Nc1ncnc2c1ncn2[C@@H]1O[C@H](COP(=O)(O)OP(=O)(O)OP(=O)(O)O)[C@@H](O)[C@H]1O [ATP, reference compound] |  |  |  | [Ca^2+]i increase (in words) ([2]; dHL60 cells, 500 μM of ATP (FIG. 4)): stimulated; Effect of PTX on agonist-induced [Ca^2+]i rise ([2]; dHL60 cells, PTX 150 ng/ml for 20 hr): not inhibited |
| CSCC[C@H](NC=O)C(=O)N[C@@H](CC(C)C)C(=O)N[C@@H](Cc1ccccc1)C(=O)O [fMLF, N-formyl-methionyl-leucyl-phenylalanine, reference compound] |  |  |  | [Ca^2+]i increase in undifferentiated HL60 cells [3]: did not affect; Superoxide production (human neutrophils; 1 μM of peptide, cytochrome c reduction): 26.5 ± 1.32 nmole/10^6 cells |
| KKHYKM-NH2 [Peptide P3] |  | 1.45 ± 0.306 folds | 8 ± 3.2 nM |  |
| KKHHKM-NH2 [Peptide P1] |  | 1.25 ± 0.168 folds | 0 nM | [Ca^2+]i increase (in words) ([2]; dHL60 cells, 1 μM): did not affect |
| RKYYPM-NH2 [Peptide P16] | most potent | 2.57 ± 0.450 folds | 135 ± 21.4 nM | Concentration of maximal activity, [Ca^2+]i increase ([2]; dHL60 cells): approximately 3 μM |
| MKYYPM-NH2 [Peptide P22] | most potent | 2.95 ± 0.668 folds | 168 ± 21.6 nM | Concentration of maximal activity, [Ca^2+]i increase ([2]; dHL60 cells): approximately 3 μM |
